From patent publication US20060270709A1 (priority 2005, published 2006)

Tests used:
[1] = test system: dopamine turnover in mice striatum; test: Dopamine, DOPAC and HVA content / dopamine turnover in mice striatum (HPLC-ECD); type: in vivo, C57BL/6 mice; details: oral; for dopamine turnover: monotherapy vs combination, mice striatum (FIG. 3)
Experimental: C57BL/6 mice (SLC, Shizuoka, Japan) were used for the experiment. […] The two drugs were orally administered by gavage 1 hour before sampling. At the time the mice were sacrificed, both striata were rapidly dissected and were frozen by liquid nitrogen. The samples were subsequently sonicated in 0.5 ml of chilled 0.5 M perchloric acid containing 0.1 M EDTA, and centrifuged at 13000 rpm for 15 min at 4° C. Then monoamine levels were measured by HPLC with electrochemical detection. Supernatant aliquots of 20 μl were separated over an Eicompak SC5-ODS column (3×150 mm; Eicom, Japan) with mobile phase of 17% methanol, 83% 0.1M acetate/citrate buffer (pH 3.5) containing 190 mg/ml sodium 1-octanesulfonate and 50 mg/ml EDTA, and a flow rate of 0.65 ml/min. Peaks of dopamine, DOPAC, HVA, 5-HT, and 5-HIAA were quantified by area integration with PowerChrom (eDAQ, Australia), and concentrations were expressed as nanograms per milligram of striatal tissue.

[2] = test system: OGD-induced neurotoxicity in CA1 region of organotypic hippocampal slice cultures; test: Oxygen-glucose deprivation (OGD) in organotypic hippocampal slice cultures (PI fluorescence in CA1); type: cell-based, Wistar rat
Experimental: (§1) Organotypic hippocampal slice cultures were prepared using the basic method of Pringle et al, Brain Research, 755:36-46 (1997) modified as follows. Wistar rat pups (8-11 days old) were decapitated and the hippocampus rapidly dissected into ice-cold Gey's balanced salt solution supplemented with 4.5 mg/ml glucose. Transverse sections (400 μm) were cut on a McIlwain tissue chopper and placed back into ice-cold Gey's balanced salt solution. Slices were separated and plated onto Millicell CM culture inserts (4 per well) and maintained at 37° C./5% CO2 for 14 days. […] Medium was changed every 3-4 days.
(§2) PI fluorescence was detected using a Leica DMIL inverted microscope fitted with a rhodamine filter set. Any cultures in which PI fluorescence was detected at this stage were excluded from further study. […] Neuronal damage was assessed by PI fluorescence imaging 24 hours after the initiation of the neurotoxic insult. Neurotoxicity protocols are outlined below.
(2) Oxygen-Glucose Deprivation (OGD): Experimental ischaemia was performed by exposing cultures to oxygen-glucose deprivation (OGD) as described previously. Pringle et al, Brain Research, 755:36-46 (1997); Pringle et al, Stroke, 27:2124-2130 (1996); Morrison et al, Br. J. Pharmacol., 137:1255-1268 (2002). OGD was induced by transferring cultures to glucose-free SFM (+PI) which had been saturated with 95% N2/5% CO2. Culture plates (without lids) were then sealed into an airtight chamber in which the atmosphere was saturated with 95% N2/5% CO2 by continuously blowing through gas at 10 L/min for ten minutes before being sealed and placed in the incubator for 50 mins (total time of OGD was therefore 60 mins). At the end of the period of OGD cultures were returned to normoxic SFM containing PI and placed back in the incubator for 23 hours.
(§3) Neuronal damage was assessed using ImageJ software running on a PC. Images were captured using a monochrome CCD camera and saved for otlline analysis. Light transmission images were captured prior to the addition of drugs, and PI fluorescence images recorded at the end of the 24-hour recovery period. The area of the CA1 region was determined from the transmission image. The area of PI fluorescence in the CA1 was measured using the threshold function on ImageJ, and neuronal damage expressed as the percentage of the CA1 in which PI fluorescence was detected above background. Morrison et al, Br. J. Pharmacol., 137:1255-1268 (2002).

[3] = test system: AMPA-mediated neurodegeneration in CA1 region of organotypic hippocampal slice cultures; test: AMPA toxicity in organotypic hippocampal slice cultures (PI fluorescence in CA1); type: cell-based, Wistar rat
Experimental: as §1, §2
(1) AMPA: Cultures were transferred to fresh SFM (+PI) containing 30 μM S-AMPA for 3 hours under normal culture conditions. At the end of this period, cultures were returned to fresh SFM for 21 hours prior to determination of neuronal death by PI imaging. GYK152466 (30 μM) was used as a positive, neuroprotective control.
as §3

[4] = test system: hypoxia-induced neurodegeneration in CA1 region of organotypic hippocampal slice cultures; test: Hypoxia-induced neurodegeneration in organotypic hippocampal slice cultures; type: cell-based, Wistar rat
Experimental: as §1, §2
(3) Hypoxia: Hypoxia was performed by exposing cultures to oxygen-deprivation as described previously. Pringle et al, Brain Research, 755:36-46 (1997); Pringle et al, Stroke, 27:2124-2130 (1996). Hypoxia was induced by transferring cultures to SFM (+PI) which had been saturated with 95% N2/5% CO2. Culture plates (without lids) were then sealed into an airtight chamber in which the atmosphere was saturated with 95% N2/5% CO2 by continuously blowing through gas at 10 L/min for ten minutes before being sealed and placed in the incubator for 170 mins (total time of hypoxia was therefore 180 mins). At the end of the period of hypoxia, cultures were returned to normoxic SFM (+PI) and placed back in the incubator for 21 hours. The freeradical scavenger MnTBAP (100 μM) was used as a positive neuroprotective control.
as §3

[5] = test system: duroquinone-induced injury in CA1 region of organotypic hippocampal slice cultures; test: Free radical-mediated toxicity (duroquinone) in organotypic hippocampal slice cultures; type: cell-based, Wistar rat; details: 100 μM duroquinone 3 hours, duroquinone alone 51.0±3.4%
Experimental: as §1
PI fluorescence was detected using a Leica DMIL inverted microscope fitted with a rhodamine filter set. Any cultures in which PI fluorescence was detected at this stage were excluded from further study. […] Neuronal damage was assessed by PI fluorescence imaging 24 hours after the initiation of the neurotoxic insult. Neurotoxicity protocols are outlined below. […]
(§4) Neuronal damage was assessed using ImageJ software running on a PC. […] Light transmission images were captured prior to the addition of drugs, and PI fluorescence images recorded at the end of the 24-hour recovery period. The area of the CA1 region was determined from the transmission image. […]

[6] = test system: NMDA-induced neural toxicity in cortical neurons; test: NMDA-induced neural toxicity in cortical neurons (LDH release); type: cell-based, rat (Wistar, fetal); details: 200 μM NMDA 24 h
Experimental: The cortical tissues were dissociated to single cells by gentle trituration. […] The cell suspension was centrifuged at 310×g for 3 min and the resulting pellets were resuspended in the medium described above.

[7] = test system: NMDA-induced neurotoxicity in CA1 region of organotypic hippocampal slice cultures; test: NMDA-induced neurotoxicity in organotypic hippocampal slice cultures; type: cell-based, Wistar rat; details: 10 μM NMDA 3 hours, NMDA alone 35.1±[…]
Experimental: as §1, §2
At the end of this period, cultures were returned to fresh SFM for 21 hours prior to determination of neuronal death by PI imaging.
as §4

[8] = C57BL/6, mouse, in vivo, po, 1 h
[9] = 1 hour before sampling (FIG. 2)

Structure (SMILES): N#Cc1ccccc1-c1cc(-c2ccccn2)cn(-c2ccccc2)c1=O [2-(2-oxo-1-phenyl-5-pyridin-2-yl-1,2-dihydropyridin-3-yl)benzonitrile]
- content of HVA in striatum ([1]; 1 mg/kg, 1 hour before sampling (FIG. 1)): elevated
- dopamine turnover [1]: modulated dopamine turnover but neither reached significance
- damage in CA1 (PI fluorescence) ([2]; 0.1 μM, 60 minutes OGD, initial set, OGD alone 50.6±5.2%): 64.4±3.6%
- damage in CA1 (PI fluorescence) ([2]; 0.5 μM, OGD second series, OGD alone 44.8±[…]): 55.3±3.1%
- effect on OGD-induced PI fluorescence ([2]; any other concentration assessed (up to 3 μM), 60 minutes OGD): no significant effect
- EC50 in OGD model ([2]; six-point concentration-response curve, 60 minutes OGD): could not be established
- damage in CA1 (PI fluorescence) ([3]; 0.1 μM, 30 μM AMPA 3 hours, AMPA alone 65.1±1.7%): 63.9±2.6%
- damage in CA1 (PI fluorescence) ([3]; 0.3 μM, 30 μM AMPA 3 hours, AMPA alone 65.1±1.7%): 50.4±2.5%
- area of PI fluorescence, % of CA1 ([3]; 0.5 μM, 30 μM AMPA, AMPA alone 62.4±[…]): 33.6±4.0%
- damage in CA1 (PI fluorescence) ([3]; 3 μM, 30 μM AMPA 3 hours, AMPA alone 65.1±1.7%): 0.1±0.1%
- EC50 ([3]; Rattus norvegicus, 3 h, read-out: EC50 in this model of AMPA toxicity): 500 nM
- damage in CA1 (PI fluorescence) ([4]; 0.1 μM, 3 hours hypoxia, first set, hypoxia alone 45.1±3.5%): 24.8±6.3%
- damage in CA1 (PI fluorescence) ([4]; 0.1 μM, hypoxia, second set, hypoxia alone 36.4±[…]): 36.7±4.2%
- damage in CA1 (PI fluorescence) ([4]; 0.5 μM, hypoxia, repeated experiment, hypoxia alone 36.9+[…]): 27.1±3.5%
- damage in CA1 (PI fluorescence) ([4]; 5 μM, 3 hours hypoxia, first set, hypoxia alone 45.1±3.5%): 3.9±1.8%
- damage in CA1 (PI fluorescence) ([5]; 0.5 μM): 69.1±4.0%
- concentration from which the effect reached a plateau [6]: ≥ 0.3 mM
- neuronal survival (LDH release) ([6]; drugs 24 hours before and during exposure (FIG. 5)): showed effects
- damage in CA1 (PI fluorescence) ([7]; 0.5 μM): 29.1±2.9%

Structure (SMILES): CC1=NN=C(c2ccc(N)cc2)c2cc3c(cc2C1)OCO3 [GYK152466, reference compound]
- damage in CA1 (PI fluorescence) ([2]; 30 μM, 60 minutes OGD, initial set, OGD alone 50.6±5.2%): 36.9±3.6%
- damage in CA1 (PI fluorescence) ([3]; 30 μM test substance, 30 μM AMPA 3 hours, AMPA alone 65.1±1.7%): 14.3±2.3%
- damage in CA1 (PI fluorescence) ([3]; 30 μM, pre-incubation time experiments, AMPA alone 46.5±5.0%): 21.7±2.7%

Structure (SMILES): C[C@]12N[C@H](Cc3ccccc31)c1ccccc12 [MK-801, reference compound]
- damage in CA1 (PI fluorescence) ([7]; 10 μM): 0.0±0.0%

Structure (SMILES): O=C(O)c1ccc(/C2=C3\C=CC(=N3)/C(c3ccc(C(=O)O)cc3)=c3/cc/c4[n]3[Mn]([Cl])[n]3c2ccc3/C(c2ccc(C(=O)O)cc2)=C2/C=CC(=N2)\C=4c2ccc(C(=O)O)cc2)cc1 [MnTBAP, reference compound]
- damage in CA1 (PI fluorescence) ([2]; 100 μM, 60 minutes OGD, initial set, OGD alone 50.6±5.2%): 0.1±0.0%
- damage in CA1 (PI fluorescence) ([2]; 100 μM, OGD second series, OGD alone 44.8±[…]): 0.6±0.2%
- damage in CA1 (PI fluorescence) ([4]; 100 μM, 3 hours hypoxia, first set, hypoxia alone 45.1±3.5%): 0.2±0.1%
- damage in CA1 (PI fluorescence) ([4]; 100 μM, hypoxia, repeated experiment, hypoxia alone 36.9+[…]): 0.8±0.4%
- damage in CA1 (PI fluorescence) ([4]; 100 μM, hypoxia, second set, hypoxia alone 36.4±[…]): 0.0±0.0%
- damage in CA1 (PI fluorescence) ([5]; 100 μM): 0.1±0.0%

Structure (SMILES): COc1cc2c(cc1OC)C(=O)C(CC1CCN(Cc3ccccc3)CC1)C2 (stereo not shown) [donepezil, 1-benzyl-4-((5,6-dimethoxy-1-indanon)-2-yl)methylpiperidine]
- dopamine turnover [1]: modulated dopamine turnover but neither reached significance
- DPAC/DA [1, 9]: increased significantly
- HVA/DA [1, 9]: increased significantly
- content of dopamine in striatum [1, 9]: reduced the content of dopamine significantly
- dose at which peripheral side effect was shown [8]: ≥ 7.5 mg/kg
